Results: patent US6706663B2, “Herbicidal 3-heterocyclic substituted benzisothiazole and benzisoxazole compounds” (Wyeth, priority 2000, dated 2004)

Legend:
[1] = tested on: IPOHE (Ipomoea hederacea); test: Preemergence herbicidal evaluation; assay type: in vivo, (L.) Jacq.; conditions: rated 4-5 weeks after treatment
SETVI (Setaria viridis) [2] = test: Preemergence herbicidal evaluation; assay type: in vivo, (L.) Beau; conditions: rated 4-5 weeks after treatment
In short: (§1)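 Visual 0–9 rating versus control (stand, vigor, malformation, size, chlorosis, overall appearance), scored four to five weeks post-treatment. Preemergence spray of aqueous acetone solution onto freshly seeded soil cups; plants grown under conventional greenhouse care.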

[3] = tested on: ECHCG (Echinochloa crus-galli); test: Preemergence herbicidal evaluation; assay type: in vivo, (L.) Beau; conditions: rated 4-5 weeks after treatment
In short: as §1

[4] = tested on: ECHCG (Echinochloa crus-galli); test: Postemergence herbicidal evaluation; assay type: in vivo, (L.) Beau
In short: (§2)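 Seedlings grown about two weeks in flats, sprayed, then kept under standard greenhouse care. Rated visually 4–5 weeks after treatment on a 0–9 scale (stand, vigour, malformation, size, chlorosis, overall appearance) relative to untreated control; repeat tests averaged.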

CYPIR (Cyperus iria) = test: Flooded paddy, preemergence weed control; assay type: in vivo; conditions: rated 3-4 weeks after treatment, 0-9 rating scale
In short: (§3)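 Under paddy conditions, seeds or vegetative propagules go into the top 0.5 cm of silt loam; the soil is then flooded to 1.5–3 cm and kept so. Treated pots stay in a greenhouse; response is rated 0-9 visually versus control.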

[5] = tested on: MOOVA (Monochoria vaginalis); test: Flooded paddy, preemergence weed control; assay type: in vivo, Presl.; conditions: rated 3-4 weeks after treatment, 0-9 rating scale
In short: as §3

GALAP (Galium aparine) = test: Postemergence herbicidal evaluation; assay type: in vivo
In short: as §2

[6] = tested on: GLXMAW (Soybean, Williams); test: Postemergence herbicidal evaluation; assay type: in vivo, Glycine max, (L.) Merr. cv Williams
In short: as §2

[7] = tested on: SAGPY (Sagittaria pygmaea); test: Flooded paddy, preemergence weed control; assay type: in vivo, L.; conditions: rated 3-4 weeks after treatment, 0-9 rating scale
In short: as §3

[8] = tested on: AMBEL (Ambrosia artemisifolia); test: Preemergence herbicidal evaluation; assay type: in vivo, L.; conditions: rated 4-5 weeks after treatment
In short: as §1

[9] = tested on: CHEAL (Chenopodium album); test: Preemergence herbicidal evaluation; assay type: in vivo, L.; conditions: rated 4-5 weeks after treatment
In short: as §1

[10] = tested on: CASOB (Cassia obtusifolia); test: Preemergence herbicidal evaluation; assay type: in vivo, L.; conditions: rated 4-5 weeks after treatment
In short: as §1

[11] = tested on: ECHORC (Echinochloa oryzoides); test: Flooded paddy, preemergence weed control; assay type: in vivo, Echinochloa oryzoides (Ard.) Fritsch.; conditions: rated 3-4 weeks after treatment, 0-9 rating scale
In short: as §3

[12] = tested on: IPOHE (Ipomoea hederacea); test: Postemergence herbicidal evaluation; assay type: in vivo, (L.) Jacq.
In short: as §2

ORYSAT (Rice, Tebonnet) [13] = test: Flooded paddy, post-transplant rice tolerance; assay type: in vivo, Oryza sativa, (L.) Tebonnet; conditions: flooded paddy, post-transplant rice, rated 3-4 weeks after treatment, 0-9 rating scale
In short: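 Visual 0-9 rating against a control, covering stand, vigor, malformation, size, chlorosis and overall appearance. Treatment was applied after transplanting paired ten-day-old seedlings into flooded silt loam, with water kept 1.5 to 3 cm deep on greenhouse benches.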

ORYSAT (Rice, Tebonnet) [14] = test: Postemergence herbicidal evaluation; assay type: in vivo, Oryza sativa, (L.) Tebonnet
In short: as §2

[15] = tested on: ABUTH (Abutilon theophrasti); test: Postemergence herbicidal evaluation; assay type: in vivo, Medic.
In short: as §2

ZEAMX (Corn, Field) = test: Postemergence herbicidal evaluation; assay type: in vivo, Zea mays, L.
In short: as §2

ORYSAT (Rice, Tebonnet) [16] = test: Preemergence herbicidal evaluation; assay type: in vivo, Oryza sativa, (L.) Tebonnet; conditions: rated 4-5 weeks after treatment
SETVI (Setaria viridis) [17] = test: Postemergence herbicidal evaluation; assay type: in vivo, (L.) Beau
In short: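 Visual injury score (0-9: stand, vigor, malformation, size, chlorosis, overall appearance vs untreated control) taken four to five weeks post-spray. Two-week-old seedlings received about 0.0040 to 1.000 kg/ha active compound in acetone/water with 0.5% TWEEN 20.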

Cc1cccnc1-c1nsc2cc(F)c(-n3c(=O)cc(C(F)(F)F)n(C)c3=O)cc12 [Compound 44, 3-[6-fluoro-3-(3-methyl-2-pyridyl)-1,2-benzisothiazol-5-yl]-1-methyl-6-(trifluoromethyl)uracil]
Preemergence herbicidal rating IPOHE ([1]; Rate 0.0620 kg/ha): 3.0 | Preemergence herbicidal rating IPOHE ([1]; Rate 0.1250 kg/ha): 7.5 | Preemergence herbicidal rating IPOHE ([1]; Rate 0.2500 kg/ha): 9.0 | Preemergence herbicidal rating SETVI (SETVI (Setaria viridis) [2]; Rate 0.0620 kg/ha): 9.0 | Preemergence herbicidal rating SETVI (SETVI (Setaria viridis) [2]; Rate 0.1250 kg/ha): 9.0 | Preemergence herbicidal rating SETVI (SETVI (Setaria viridis) [2]; Rate 0.2500 kg/ha): 9.0 | Preemergence herbicidal rating ECHCG ([3]; Rate 0.0620 kg/ha): 9.0 | Preemergence herbicidal rating ECHCG ([3]; Rate 0.1250 kg/ha): 9.0 | Preemergence herbicidal rating ECHCG ([3]; Rate 0.2500 kg/ha): 9.0 | Postemergence herbicidal rating, ECHCG ([4]; rate 0.0320 kg/ha): 1.0 | Postemergence herbicidal rating, ECHCG ([4]; rate 0.0620 kg/ha): 3.0 | herbicidal rating, CYPIR (CYPIR (Cyperus iria); rate 0.0080 kg/ha): 0.0 | herbicidal rating, CYPIR (CYPIR (Cyperus iria); rate 0.0320 kg/ha): 8.0 | herbicidal rating, CYPIR (CYPIR (Cyperus iria); rate 0.1250 kg/ha): 9.0 | herbicidal rating, MOOVA ([5]; rate 0.0080 kg/ha): 0.0 | herbicidal rating, MOOVA ([5]; rate 0.0320 kg/ha): 8.5 | herbicidal rating, MOOVA ([5]; rate 0.1250 kg/ha): 9.0 | Postemergence herbicidal rating, GALAP (GALAP (Galium aparine); rate 0.0320 kg/ha): 4.0 | Postemergence herbicidal rating, GALAP (GALAP (Galium aparine); rate 0.0620 kg/ha): 7.0 | Postemergence herbicidal rating, GLXMAW ([6]; rate 0.0320 kg/ha): 8.5 | Postemergence herbicidal rating, GLXMAW ([6]; rate 0.0620 kg/ha): 8.5 | herbicidal rating, SAGPY ([7]; rate 0.0080 kg/ha): 0.0 | herbicidal rating, SAGPY ([7]; rate 0.0320 kg/ha): 4.5 | herbicidal rating, SAGPY ([7]; rate 0.1250 kg/ha): 9.0 | Preemergence herbicidal rating AMBEL ([8]; Rate 0.0620 kg/ha): 8.0 | Preemergence herbicidal rating AMBEL ([8]; Rate 0.1250 kg/ha): 9.0 | Preemergence herbicidal rating AMBEL ([8]; Rate 0.2500 kg/ha): 9.0 | Preemergence herbicidal rating CHEAL ([9]; Rate 0.0620 kg/ha): 9.0 | Preemergence herbicidal rating CHEAL ([9]; Rate 0.1250 kg/ha): 9.0 | Preemergence herbicidal rating CHEAL ([9]; Rate 0.2500 kg/ha): 9.0 | Preemergence herbicidal rating CASOB ([10]; Rate 0.0620 kg/ha): 1.0 | Preemergence herbicidal rating CASOB ([10]; Rate 0.1250 kg/ha): 5.5 | Preemergence herbicidal rating CASOB ([10]; Rate 0.2500 kg/ha): 9.0 | herbicidal rating, ECHORC ([11]; rate 0.0080 kg/ha): 3.0 | herbicidal rating, ECHORC ([11]; rate 0.0320 kg/ha): 8.5 | herbicidal rating, ECHORC ([11]; rate 0.1250 kg/ha): 9.0 | Postemergence herbicidal rating, IPOHE ([12]; rate 0.0320 kg/ha): 9.0 | Postemergence herbicidal rating, IPOHE ([12]; rate 0.0620 kg/ha): 9.0 | herbicidal rating, ORYSAT (rice tolerance) (ORYSAT (Rice, Tebonnet) [13]; rate 0.0080 kg/ha): 0.0 | herbicidal rating, ORYSAT (rice tolerance) (ORYSAT (Rice, Tebonnet) [13]; rate 0.0320 kg/ha): 7.5 | herbicidal rating, ORYSAT (rice tolerance) (ORYSAT (Rice, Tebonnet) [13]; rate 0.1250 kg/ha): 7.5 | Postemergence herbicidal rating, ORYSAT (ORYSAT (Rice, Tebonnet) [14]; rate 0.0320 kg/ha): 2.0 | Postemergence herbicidal rating, ORYSAT (ORYSAT (Rice, Tebonnet) [14]; rate 0.0620 kg/ha): 3.5 | Postemergence herbicidal rating, ABUTH ([15]; rate 0.0320 kg/ha): 9.0 | Postemergence herbicidal rating, ABUTH ([15]; rate 0.0620 kg/ha): 9.0 | Postemergence herbicidal rating, ZEAMX (ZEAMX (Corn, Field); rate 0.0320 kg/ha): 5.0 | Postemergence herbicidal rating, ZEAMX (ZEAMX (Corn, Field); rate 0.0620 kg/ha): 5.5 | Preemergence herbicidal rating ORYSAT (ORYSAT (Rice, Tebonnet) [16]; Rate 0.0620 kg/ha): 6.5 | Preemergence herbicidal rating ORYSAT (ORYSAT (Rice, Tebonnet) [16]; Rate 0.1250 kg/ha): 8.0 | Preemergence herbicidal rating ORYSAT (ORYSAT (Rice, Tebonnet) [16]; Rate 0.2500 kg/ha): 8.0 | Postemergence herbicidal rating, SETVI (SETVI (Setaria viridis) [17]; rate 0.0320 kg/ha): 9.0 | Postemergence herbicidal rating, SETVI (SETVI (Setaria viridis) [17]; rate 0.0620 kg/ha): 9.0
